Experimental data from ChEMBL document CHEMBL3137667, “[Drug-induced liver injury; fourteenth updated edition of the bibliographic database of liver injuries and related drugs]” (Gastroenterol Clin Biol, 2004).

Key:
[1] = Highest frequency of moderate liver toxicity observed during clinical trials, expressed as a percentage. [column '% BIOL' in source]; settings: human
[2] = Highest frequency of acute liver toxicity observed during clinical trials, expressed as a percentage. [column '% AIGUE' in source]; settings: human
[3] = Times to onset, minimal and maximal, observed in the indexed observations. [column 'DELAI' in source]; settings: human
[4] = human, serum
[5] = human, serum; remark: listed apart in the source
[6] = human
[7] = human; remark: listed apart in the source
[8] = human; remark: listed apart in the source
[9] = human, serum, 4383 h
[10] = human; remark: listed apart in the source
[11] = human; remark: listed apart in the source
[12] = human; remark: listed apart in the source
[13] = human; remark: listed apart in the source
[14] = human; remark: listed apart in the source
[15] = human; remark: listed apart in the source
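Throughout, for Hepatotoxicity (association with vascular disease): count of indexed literature references reporting vascular liver injury in humans, e.g. peliosis hepatitis, hepatic veno-occlusive disease or Budd-Chiari syndrome.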
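Throughout, for Hepatotoxicity (benign tumour): value is a count of indexed literature references citing a benign tumour confirmed by histopathology.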
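Throughout, for Hepatotoxicity (choleostasis): human cholestatic liver injury, shown by histopathology or by peak ALT or AST elevation over alkaline phosphatase ratio below 2, value counts indexed literature reports.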
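Throughout, for Hepatotoxicity (chronic liver disease): chronic liver injury confirmed by histopathology or persistently raised serum aminotransferase activity beyond 6 months, value given as the count of indexed literature references.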
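Throughout, for Hepatotoxicity (cirrhosis): value is a count of indexed literature references reporting cirrhosis confirmed by histopathology.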
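Throughout, for Hepatotoxicity (cytolytic): human cytolytic liver injury, shown by histopathology or by a ratio above 5 of peak ALT or AST elevation to alkaline phosphatase elevation, value counts indexed references.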
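Throughout, for Hepatotoxicity (granulomatous hepatitis): value is a count of indexed literature references reporting granulomatous liver disease confirmed by histopathology.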
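Throughout, for Hepatotoxicity (malignant tumour): malignant tumour confirmed by histopathology, value gives the count of indexed literature references reporting it.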
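Throughout, for Hepatotoxicity (severe hepatitis): human clinical data: severe hepatitis, meaning potentially life-threatening liver failure or clinically observed cases, the value counts how many indexed literature references report it.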
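Throughout, for Hepatotoxicity (steatosis): steatosis confirmed by histopathology, value is the count of indexed references.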

Structure (SMILES) | Hepatotoxicity (moderate) [1] | Hepatotoxicity (acute) [2] | Hepatotoxicity (time to onset) [3] | Hepatotoxicity (moderate) [4] | Hepatotoxicity (acute) [5] | Hepatotoxicity (cytolytic) [6] | Hepatotoxicity (choleostasis) [7] | Hepatotoxicity (severe hepatitis) [8] | Hepatotoxicity (chronic liver disease) [9] | Hepatotoxicity (cirrhosis) [10] | Hepatotoxicity (granulomatous hepatitis) [11] | Hepatotoxicity (association with vascular disease) [12] | Hepatotoxicity (steatosis) [13] | Hepatotoxicity (malignant tumour) [14] | Hepatotoxicity (benign tumour) [15]
CCCCC(=O)N(Cc1ccc(-c2ccccc2-c2nnn[nH]2)cc1)[C@H](C(=O)O)C(C)C | 0% | 0% | 1 month - 4.5 months | 2 | 3 | 1 | 1 | 1 | 0 | 0 | 0 | 0 | 0 | 0 | 0
N#C[C@H](O[C@@H]1O[C@H](CO[C@@H]2O[C@H](CO)[C@@H](O)[C@H](O)[C@H]2O)[C@@H](O)[C@H](O)[C@H]1O)c1ccccc1 [AMYGDALIN] | 0% | 0% | 2 days | 0 | 0 | 0 | 0 | 1 | 0 | 0 | 0 | 0 | 0 | 0 | 0
CC(C)Cc1ccc(CC(=O)O)cc1 [IBUFENAC] | 40% | 5% | 4 months | 2 | 3 | 3 | 1 | 1 | 0 | 0 | 0 | 0 | 0 | 0 | 0
CCCC1O[C@@H]2C[C@H]3[C@@H]4CCC5=CC(=O)C=C[C@]5(C)[C@H]4[C@@H](O)C[C@]3(C)[C@]2(C(=O)CO)O1 (stereo not given in full) [BUDESONIDE] | 0% | 0% | 19 days | 0 | 1 | 1 | 0 | 0 | 0 | 0 | 0 | 0 | 0 | 0 | 0
CO/N=C1\CN(c2nc3c(cc2F)c(=O)c(C(=O)O)cn3C2CC2)CC1CN (stereo not given) [GEMIFLOXACIN] | 0.3% | 0% | 6 days | 4 | 0 | 0 | 0 | 0 | 0 | 0 | 0 | 0 | 0 | 0 | 0
COc1cc(N)c(Cl)cc1C(=O)NC1CCN(CCCOc2ccc(F)cc2)CC1OC (stereo not given) [CISAPRIDE] | 0% | 0% | 4 days | 2 | 1 | 1 | 0 | 0 | 0 | 0 | 0 | 0 | 0 | 0 | 0
COc1ccc(OC[C@H]2CN(C)CC[C@@H]2c2ccccc2)cc1 [FEMOXETINE] | 0% | 0% | 5 months | 0 | 1 | 1 | 0 | 1 | 0 | 0 | 0 | 0 | 0 | 0 | 0
C=CCC(C(=O)NC(N)=O)C(C)C (stereo not given) [APRONAL] | 0% | 0% | 2 days - 2 years | 0 | 2 | 0 | 0 | 0 | 0 | 0 | 2 | 0 | 0 | 0 | 0
CCN1CCC[C@H]1CNC(=O)c1c(O)c(Cl)cc(Cl)c1OC [RACLOPRIDE] | 2.2% | 0% | 1 week - 2 weeks | 1 | 0 | 0 | 0 | 0 | 0 | 0 | 0 | 0 | 0 | 0 | 0
CN1CCN(C2=Nc3ccccc3Oc3ccc(Cl)cc32)CC1 [LOXAPINE] | 0% | 0% | 1 week - 3 weeks | 2 | 1 | 0 | 1 | 0 | 0 | 0 | 0 | 0 | 0 | 0 | 0
Cn1nnnc1SCC1=C(C(=O)O)N2C(=O)[C@@H](NC(=O)[C@H](O)c3ccccc3)[C@H]2SC1 [CEFAMANDOLE] | 75% | 2.4% | 4 days | 13 | 2 | 0 | 1 | 0 | 0 | 0 | 0 | 0 | 0 | 0 | 0
